From paper PMC5370183, “Kinetics of the LOV domain of ZEITLUPE determine its circadian function in Arabidopsis” (eLife, 2017)

Columns and labels:
[1] = target: T1, ZEITLUPE LOV domain (ZTL 29-165, ZTL-S) (Arabidopsis thaliana, UniProt Q94BT6, V48I/G80R); experiment: X-ray crystal structure; type: binding; conditions: dark state (5SVV, 2.1 Å) non-covalent; light state (5SVW, 2.3 Å) covalent C4a adduct with C82
T1 construct: gene ADO1; LOV domain, residues 29-165, E. coli, 6xHis or GST tag cleaved by TEV; monomer 16 kDa, homodimer 33 kDa (MALS)
T1 sequence (Q94BT6 29-165 V48I/G80R): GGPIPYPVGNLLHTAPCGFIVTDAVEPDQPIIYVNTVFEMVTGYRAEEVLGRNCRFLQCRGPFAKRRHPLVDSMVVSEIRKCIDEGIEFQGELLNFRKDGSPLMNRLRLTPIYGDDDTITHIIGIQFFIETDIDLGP

[2] = target: T2, ZEITLUPE LOV domain (ZTL 29-165, ZTL-S) (Arabidopsis thaliana, UniProt Q94BT6); experiment: X-ray crystal structure; type: binding; conditions: dark state, 2.5 Å; FMN non-covalently bound next to C82
T2 construct: gene ADO1; LOV domain, residues 29-165, E. coli, 6xHis or GST tag cleaved by TEV; monomer 16 kDa, homodimer 33 kDa (MALS)
T2 sequence (Q94BT6 29-165): as the sequence (Q94BT6 29-165 V48I/G80R) above, with I20V, R52G counted along it

In the case of Cc1cc2nc3c(=O)[nH]c(=O)nc-3n(C[C@H](O)[C@H](O)[C@H](O)COP(=O)(O)O)c2cc1C [FMN], the X-ray crystal structure [1] was “Light state crystal structure of V48I:G80R” and the X-ray crystal structure [2] was “The helices cradle the photoreactive FMN adjacent to C82 (Eα helix)”.
